The target in experiment [1] is T1, TRPC5 (Homo sapiens, UniProt Q9UL62).
T1 construct: expressed in transfected cells; host or cells: HEK293 FITR (inducible expression)
T1 sequence (Q9UL62 1-973): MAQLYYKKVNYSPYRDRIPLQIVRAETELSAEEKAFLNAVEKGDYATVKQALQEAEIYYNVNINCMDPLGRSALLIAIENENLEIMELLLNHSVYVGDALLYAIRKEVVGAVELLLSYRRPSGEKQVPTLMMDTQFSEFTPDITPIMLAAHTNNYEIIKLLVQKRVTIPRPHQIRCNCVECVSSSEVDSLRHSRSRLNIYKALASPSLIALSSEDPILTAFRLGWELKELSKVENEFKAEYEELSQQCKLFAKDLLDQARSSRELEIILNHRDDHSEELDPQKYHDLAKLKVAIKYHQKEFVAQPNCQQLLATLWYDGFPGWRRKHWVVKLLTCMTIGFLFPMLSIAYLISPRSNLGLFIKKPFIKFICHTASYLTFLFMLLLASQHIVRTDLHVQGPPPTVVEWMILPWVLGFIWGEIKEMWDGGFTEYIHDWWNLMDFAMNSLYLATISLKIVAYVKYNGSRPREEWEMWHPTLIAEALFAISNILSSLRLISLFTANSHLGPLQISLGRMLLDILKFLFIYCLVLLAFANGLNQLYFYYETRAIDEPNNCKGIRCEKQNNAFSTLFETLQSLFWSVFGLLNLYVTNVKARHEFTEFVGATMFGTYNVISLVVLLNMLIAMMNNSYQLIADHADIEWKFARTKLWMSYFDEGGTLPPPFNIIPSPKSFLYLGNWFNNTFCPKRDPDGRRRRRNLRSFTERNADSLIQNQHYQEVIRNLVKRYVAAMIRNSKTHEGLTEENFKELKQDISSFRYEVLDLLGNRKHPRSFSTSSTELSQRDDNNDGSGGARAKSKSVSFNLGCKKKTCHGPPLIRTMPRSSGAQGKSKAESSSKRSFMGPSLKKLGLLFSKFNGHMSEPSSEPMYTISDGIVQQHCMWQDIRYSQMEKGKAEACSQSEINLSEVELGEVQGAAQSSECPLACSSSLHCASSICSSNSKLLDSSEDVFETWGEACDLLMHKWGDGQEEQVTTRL
The experiment is described as follows: FLIPR Ca2+ influx measurement, trypsin-stimulated TRPC5 HEK293 cells. The format is cell-based. The conditions noted are these: 200 nM trypsin. An excerpt: In general, cells are provided which express a TRPC channel. Such cells can be produced using genetic methods known to a person skilled in the art. After having induced the expression of the TRPC channel, cells are usually plated into e.g. microtiter plates and grown. Usually the cells grow at the bottom of multiwell plates and are fixed. Thereafter, the cells are generally washed and loaded with a dye in a suitable loading buffer, preferably with a fluorescent dye such as fluo4am. After having removed the loading buffer, the cells are incubated with the test compound or modulator, in particular with a biochemical or chemical test compound as described above, e.g. in the form of a chemical compound library. Ca^2+ measurements can be carried out using e.g. a Fluorescence Imaging Plate Reader (FLIPR). To stimulate Ca^2+ influx through the TRPC channel a channel activator such as OAG should generally be applied.
When these experiments were performed, no direct physiological stimuli of TRPC4 and TRPC5 were known. Therefore, both channels had to be stimulated indirectly, e.g. by application of trypsin, a protease-activated receptor (PAR) stimulating protease. […] Kinetics and quantity of calcium store release in cells treated with 30 μM norgestimate were not changed compared to untreated cells. […]

The target of experiment [2] is T1, TRPC5. The experiment is described as follows: Whole-cell patch clamp, AlF4- activated TRPC5 HEK293 cells. It is filed as cell-based. Particulars: 10 μM, -70 mV, n=20. The method, then:
Channels were indirectly excited with the same stimulus for better comparability of the norgestimate effect. Aluminium tetrafluoride (AIF^4−) applied intracellularly via the patch pipette activates G-proteins by mimicking GTP (Sternweis & Gilman, 1982; Bigay et al., 1987).
Since these channels are potentiated by micromolar La^3+ concentrations (Jung et al., 2003), 2-aminoethoxydiphenyl borate (2-APB), a characterized TRPC5 blocker (Xu et al., 2005) was used instead.
Effect of 10 μM norgestimate (NG) on whole-cell currents evoked by AlF4^− infusion into induced TRPC6— (A) and TRPC5 HEK 293 (B) cells. Whole cell currents recorded at −70 mV (left panels) and the corresponding current-voltage (I-V) relationships are shown (right panels). […] The curves were obtained during voltage ramps from −100 to +80 mV. (C) Statistical analysis of the norgestimate effect on TRPC5— and TRPC6-mediated currents.
On the technique in general: The patch-clamp technique gives a direct electrical read-out from membranes.

“Also recorded” adds a separate entry of the source. A value given as a limit tells only on which side of the number the result lay.

The IC50 is the point on the concentration scale where inhibition reaches its midpoint. High values mean weaker potency, low ones greater potency. On to `C#C[C@]1(OC(C)=O)CC[C@H]2[C@@H]3CCC4=C/C(=N/O)CC[C@@H]4[C@H]3CC[C@@]21CC` [norgestimate, D-17β-acetoxy-B-ethyl-17α ethinyl-gon-4-en-3-one oxime], for which, in experiment [1] (30 μM norgestimate), the “inhibitory effect on TRPC5-mediated Ca2+ influx” value is recorded as “only small inhibitory effects; also recorded: slightly reduced”. For the same compound, the IC50 in experiment [1] (FLIPR, n=4) is over 30 µM. Also, the TRPC5 current blocked in experiment [2] came to 25.9±5.7%.

Source of the values: patent US8455469B2, “Use of norgestimate as a selective inhibitor of TRPC3, TRPC6 and TRPC7 ion channels” (Sanofi, priority 2007, dated 2013).
